For orientation: mortality means the percentage killed.

Holding throughout (type): functional
What all share (details): 72 h

Test [1] concerns Plutella xylostella. The experiment in a line: Insecticidal activity against third-instar larvae of Plutella xylostella (diamondback moth) fed on compound treated cabbage leaves assessed as mortality at 100 mg/l after 3 days relative to control.
Test [2] deals with Plutella xylostella. The experiment in a line: Insecticidal activity against third-instar larvae of Plutella xylostella (diamondback moth) fed on compound treated cabbage leaves assessed as mortality at 25 mg/l after 3 days relative to control.
For test [3], the system named is Plutella xylostella. The experiment in a line: Insecticidal activity against third-instar larvae of Plutella xylostella (diamondback moth) fed on compound treated cabbage leaves assessed as mortality at 6.25 mg/l after 3 days relative to control.

Structures are written as SMILES.

For `Cc1c(OCCCOc2c(Cl)cc(OCC=C(Cl)Cl)cc2Cl)nn(C)c1-c1ccccc1`, the mortality at 100 µg/mL in the test with Plutella xylostella [1] was 100%. In addition, the mortality at 25 µg/mL with Plutella xylostella [2] stood at 30%. Besides, the mortality at 6.25 µg/mL in the test with Plutella xylostella [3] was determined as 0%.
On to `Cc1c(OCCCOc2c(Cl)cc(OCC=C(Cl)Cl)cc2Cl)nn(C)c1-c1ccc(Cl)cc1`, for which the mortality at 100 µg/mL in the test with Plutella xylostella [1] came to 80%. Also, the mortality at 25 µg/mL in the test on Plutella xylostella [2] was 50%. Further, the mortality at 6.25 µg/mL with Plutella xylostella [3] was found to be 20%.
Consider `CCc1ccc(-c2c(C)c(OCCCOc3c(Cl)cc(OCC=C(Cl)Cl)cc3Cl)nn2C)cc1`, for which the mortality at 100 µg/mL with Plutella xylostella [1] amounted to 100%. In the test on Plutella xylostella [2], the mortality at 25 µg/mL was found to be 77%. Also, the mortality at 6.25 µg/mL in the test with Plutella xylostella [3] came out at 60%.
For the molecule `COc1ccc(-c2c(C)c(OCCCOc3c(Cl)cc(OCC=C(Cl)Cl)cc3Cl)nn2C)cc1`, the mortality at 100 µg/mL in the test with Plutella xylostella [1] was 100%. In the test on Plutella xylostella [2], the mortality at 25 µg/mL was found to be 40%. Besides, the mortality at 6.25 µg/mL in the test on Plutella xylostella [3] stood at 10%.
For the molecule `Cn1nc(OCCCOc2c(Cl)cc(OCC=C(Cl)Cl)cc2Cl)cc1-c1ccc(Cl)cc1Cl`, the mortality at 100 µg/mL in the test on Plutella xylostella [1] turned out to be 100%. The mortality at 25 µg/mL with Plutella xylostella [2] was found to be 80%. The mortality at 6.25 µg/mL in the test on Plutella xylostella [3] turned out to be 0%.
For `Cc1ccccc1-c1cc(OCCCOc2c(Cl)cc(OCC=C(Cl)Cl)cc2Cl)nn1C`, in that order: 100%, 70% and 40%.
The matching figures for `CCc1ccc(-c2c(C)c(OCCOc3c(Cl)cc(OCC=C(Cl)Cl)cc3Cl)nn2C)cc1`: 67%, 33% and 0%.
With `CCOc1ccc(-c2c(C)c(OCCCOc3c(Cl)cc(OCC=C(Cl)Cl)cc3Cl)nn2C)cc1`, the mortality at 100 µg/mL in the test with Plutella xylostella [1] was 100%. For the same molecule, the mortality at 25 µg/mL in the test on Plutella xylostella [2] is 20%. Also, the mortality at 6.25 µg/mL in the test with Plutella xylostella [3] amounted to 10%.
For `Cc1ccc(-c2c(C)c(OCCCOc3c(Cl)cc(OCC=C(Cl)Cl)cc3Cl)nn2C)cc1`, the mortality at 100 µg/mL with Plutella xylostella [1] amounted to 100%. In addition, the mortality at 25 µg/mL with Plutella xylostella [2] is 100%. In addition, the mortality at 6.25 µg/mL with Plutella xylostella [3] was determined as 95%.
Regarding `Cc1c(OCCCOc2c(Cl)cc(OCC=C(Cl)Cl)cc2Cl)nn(C)c1-c1ccc(Cl)c(Cl)c1`, in the test with Plutella xylostella [1], the mortality at 100 µg/mL turned out to be 100%. The mortality at 25 µg/mL with Plutella xylostella [2] came out at 75%. In addition, in the test on Plutella xylostella [3], the mortality at 6.25 µg/mL is 50%.
Take `Cc1ccc(-c2c(C)c(OCCCOc3c(Cl)cc(OCC=C(Cl)Cl)cc3Cl)nn2C)cc1C`: the mortality at 100 µg/mL in the test with Plutella xylostella [1] stood at 100%. The mortality at 25 µg/mL with Plutella xylostella [2] worked out at 100%. The mortality at 6.25 µg/mL in the test with Plutella xylostella [3] came out at 87%.
As to `Cc1ccc(C)c(-c2c(C)c(OCCCOc3c(Cl)cc(OCC=C(Cl)Cl)cc3Cl)nn2C)c1`, the mortality at 100 µg/mL with Plutella xylostella [1] came out at 75%. Besides, the mortality at 25 µg/mL in the test on Plutella xylostella [2] was 67%. Further, in the test on Plutella xylostella [3], the mortality at 6.25 µg/mL stood at 37%.
For `Cc1c(OCCCOc2c(Cl)cc(OCC=C(Cl)Cl)cc2Cl)nn(C)c1-c1ccc(C(C)(C)C)cc1`, in that order: 100%, 87% and 30%.
Regarding `Cc1c(OCCCOc2c(Cl)cc(OCC=C(Cl)Cl)cc2Cl)nn(C)c1-c1ccc(Cl)cc1Cl`, the mortality at 100 µg/mL in the test on Plutella xylostella [1] was 85%. In addition, the mortality at 25 µg/mL in the test on Plutella xylostella [2] came out at 80%. The mortality at 6.25 µg/mL with Plutella xylostella [3] worked out at 67%.
In the case of `Cc1ccc(-c2cc(OCCCOc3c(Cl)cc(OCC=C(Cl)Cl)cc3Cl)nn2C)c(C)c1`, in the test on Plutella xylostella [1], the mortality at 100 µg/mL is 90%. In addition, in the test on Plutella xylostella [2], the mortality at 25 µg/mL came out at 50%. In the test on Plutella xylostella [3], the mortality at 6.25 µg/mL was determined as 30%.
For `Cc1ccc(-c2c(C)c(OCCCOc3c(Cl)cc(OCC=C(Cl)Cl)cc3Cl)nn2C)c(C)c1`, in that order: 90%, 60% and 30%.
The matching figures for `Cc1c(OCCCOc2c(Cl)cc(OCC=C(Cl)Cl)cc2Cl)nn(C)c1-c1ccc(C(C)C)cc1`: 100%, 100% and 85%.
For `Cc1ccc(-c2c(C)c(OCCOc3c(Cl)cc(OCC=C(Cl)Cl)cc3Cl)nn2C)cc1`, in that order: 17%, 0% and 0%.
Take `FC(F)(F)c1ccc(OCCCOc2c(Cl)cc(OCC=C(Cl)Cl)cc2Cl)nc1` [PYRIDALYL]: the mortality at 100 µg/mL in the test on Plutella xylostella [1] stood at 100%. In the test on Plutella xylostella [2], the mortality at 25 µg/mL is 100%. Besides, the mortality at 6.25 µg/mL in the test on Plutella xylostella [3] came to 65%.
As for `CCc1ccc(-c2cc(OCCCOc3c(Cl)cc(OCC=C(Cl)Cl)cc3Cl)nn2C)cc1`, the mortality at 100 µg/mL in the test with Plutella xylostella [1] is 70%. Besides, the mortality at 25 µg/mL with Plutella xylostella [2] stood at 40%. For the same molecule, the mortality at 6.25 µg/mL in the test with Plutella xylostella [3] came to 30%.
As to `Cc1c(OCCCOc2c(Cl)cc(OCC=C(Cl)Cl)cc2Cl)nn(C)c1-c1ccc(F)cc1`, the mortality at 100 µg/mL with Plutella xylostella [1] was determined as 100%. In addition, the mortality at 25 µg/mL in the test on Plutella xylostella [2] turned out to be 80%. Also, the mortality at 6.25 µg/mL in the test on Plutella xylostella [3] was 30%.
Consider `CCc1ccc(-c2c(C)c(OCCCCOc3c(Cl)cc(OCC=C(Cl)Cl)cc3Cl)nn2C)cc1`, for which the mortality at 100 µg/mL in the test with Plutella xylostella [1] amounted to 100%. The mortality at 25 µg/mL in the test on Plutella xylostella [2] is 50%. The mortality at 6.25 µg/mL in the test on Plutella xylostella [3] turned out to be 10%.
In the case of `Cc1ccc(-c2cc(OCCCOc3c(Cl)cc(OCC=C(Cl)Cl)cc3Cl)nn2C)cc1C`, in the test on Plutella xylostella [1], the mortality at 100 µg/mL is 80%. Further, the mortality at 25 µg/mL in the test with Plutella xylostella [2] is 50%. The mortality at 6.25 µg/mL with Plutella xylostella [3] worked out at 0%.
For `Cn1nc(OCCCOc2c(Cl)cc(OCC=C(Cl)Cl)cc2Cl)cc1-c1ccccc1`, in that order: 100%, 100% and 75%.
The matching figures for `Cc1ccc(-c2c(C)c(OCCCCOc3c(Cl)cc(OCC=C(Cl)Cl)cc3Cl)nn2C)cc1`: 100%, 50% and 42%.
The matching figures for `Cn1nc(OCCCOc2c(Cl)cc(OCC=C(Cl)Cl)cc2Cl)cc1-c1ccc(Cl)cc1`: 100%, 100% and 65%.

(Values after ChEMBL document CHEMBL3045955, “Design, synthesis and structure-activity relationship of novel insecticidal dichloro-allyloxy-phenol derivatives containing substituted pyrazol-3-ols” (2013).)
